The text below walks through data of patent US20110065706A1, “Therapeutic Agents 812” (AstraZeneca AB, priority 2009, published 2011).

One may read the EC50 as the midpoint of the concentration-response curve. Read a low EC50 as higher potency in that assay.

The first test deals with T1, human GPR119 (Homo sapiens, UniProt Q8TDV5).
T1 construct: expressed in transfected cells; host or cells: HEK 293s
T1 sequence (Q8TDV5 1-335): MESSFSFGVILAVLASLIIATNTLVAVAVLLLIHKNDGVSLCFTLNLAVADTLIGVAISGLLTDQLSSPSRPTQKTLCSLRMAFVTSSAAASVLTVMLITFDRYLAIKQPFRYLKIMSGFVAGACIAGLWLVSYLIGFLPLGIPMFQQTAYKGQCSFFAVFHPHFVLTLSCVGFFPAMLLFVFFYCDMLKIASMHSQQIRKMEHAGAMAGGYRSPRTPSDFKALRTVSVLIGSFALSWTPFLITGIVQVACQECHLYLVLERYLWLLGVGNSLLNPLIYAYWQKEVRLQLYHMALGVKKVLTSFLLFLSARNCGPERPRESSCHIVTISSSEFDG
Briefly: Cyclic AMP (HTRF cAMP) assay for human GPR119, Method A. The class given is cell-based. Particulars: HEK293S, 0.75 h; Method A; HEK 293s cells over-expressing human GPR119; percent effect at top concentration 30 μM relative to maximum (50 μM Oleoylethanolamide) and minimum (1% DMSO) controls. For orientation: TR-FRET usually uses a lanthanide donor and a delayed reading to cut background.
On to `CN(C)CCN(C)C(=O)c1ccc(COc2cnc(N3CCN(C(=O)OC(C)(C)C)CC3)nc2)cc1` [Example 49, tert-butyl 4-(5-(4-((2-(dimethylamino)ethyl)(methyl)carbamoyl)benzyloxy)pyrim-idin-2-yl)piperazine-1-carboxylate], for which the activation at 30 µM was 27%.

On to `CC(C)(C)OC(=O)N1CCN(c2ncc(OCc3ccc(C(=O)N4CCNCC4)cc3)cn2)CC1` [Example 50, tert-butyl 4-(5-(4-(piperazine-1-carbonyl)benz-yloxy)pyrimi-din-2-yl)piperazine-1-carboxylate], for which the activation at 30 µM was 23%.

In the case of `CN1CCN(C(=O)c2ccc(COc3cnc(N4CCN(C(=O)OC(C)(C)C)CC4)nc3)cc2)CC1` [Example 51, tert-butyl 4-(5-(4-(4-methylpiper-azine-1-carbonyl)benz-yloxy)pyrimi-din-2-yl)piperazine-1-carboxylate], the activation at 30 µM amounted to 42%.

Take `CN1CCC(CNC(=O)c2ccc(COc3cnc(N4CCN(C(=O)OC(C)(C)C)CC4)nc3)cc2)CC1` [Example 52, tert-butyl 4-(5-(4-((1-methylpiper-idin-4-yl)methylcarba-moyl)benzyl-oxy)pyrimidin-2-yl)piperazine-1-carboxylate]: the activation at 30 µM came to 20%.

Compound `CC(C)(C)OC(=O)N1CCN(c2ncc(OCc3ccc(C(=O)N4CCOCC4)cc3)cn2)CC1` [Example 53] came in with an activation at 30 µM of 44%.

As for `Cc1cc(COc2cnc(N3CCN(C(=O)OC(C)(C)C)CC3)nc2)ccc1C(=O)NC(C)C` [Example 54, Tert-butyl 4-(5-(4-(isopropylcarbamoyl)-3-methylbenzyloxy)pyrimidin-2-yl)piperazine-1-carboxylate], the activation at 30 µM amounted to 51%.

The compound `Cc1cc(COc2cnc(N3CCN(C(=O)OC(C)(C)C)CC3)nc2)ccc1C(=O)NC(C)(C)C` [Example 55, tert-butyl 4-(5-(4-(tert-butylcarbamoyl)-3-methylbenzyl-oxy)pyrimidin-2-yl)piperazine-1-carboxylate] returned an activation at 30 µM of 65%.

For the compound `CC(C)OC(=O)N1CCN(c2ncc(OCc3ccc(S(C)(=O)=O)cc3)cn2)CC1` [Example 56, Isopropyl 4-(5-(4-(methylsulfonyl)benzyloxy)pyrimidin-2-yl)piperazine-1-carboxylate], the activation at 30 µM came out at 63%.

Turning to `CC(C)OC(=O)N1CCN(c2ncc(OCc3ccc(S(C)(=O)=O)cc3)cn2)[C@H](C)C1` [Example 57, (R)-isopropyl 3-methyl-4-(5-(4-(methylsulfonyl)benzyloxy)pyrimidin-2-yl)piperazine-1-carboxylate], the activation at 30 µM was 69%.

For the compound `CC(C)OC(=O)N1CCN(c2ncc(OCc3ccncc3C#N)cn2)CC1` [Example 58, isopropyl 4-(5-((3-cyanopyridin-4-yl)methoxy)pyrimidin-2-yl)piperazine-1-carboxylate], the activation at 30 µM is 154%.

The compound `CC1(OC(=O)N2CCN(c3ncc(OCc4ccc(S(C)(=O)=O)cc4)cn3)CC2)CC1` [Example 60, 1-Methylcyclopropyl 4-(5-(4-(methylsulfonyl)benzyloxy)pyrimidin-2-yl)piperazine-1-carboxylate] showed an activation at 30 µM of 90%.

As for `C[C@@H]1CN(C(=O)OC2(C)CC2)CCN1c1ncc(OCc2ccc(S(C)(=O)=O)cc2)cn1` [Example 61, (R)-1-methylcyclo-propyl 3-methyl-4-(5-(4-(methylsulfonyl)benzyloxy)pyrimidin-2-yl)piperazine-1-carboxylate], the activation at 30 µM was found to be 91%.

On to `CC1(OC(=O)N2CCN(c3ncc(OCc4ccncc4C#N)cn3)CC2)CC1` [Example 62, 1-methylcyclo-propyl 4-(5-((3-cyanopyridin-4-yl)methoxy)pyrimidin-2-yl)piperazine-1-carboxylate], for which the activation at 30 µM amounted to 208%.

For the compound `CS(=O)(=O)c1ccc(COc2cnc(N3CCN(C(=O)OC4CCC4)CC3)nc2)cc1` [Example 63, Cyclobutyl 4-(5-(4-(methylsulfonyl)benzyloxy)pyrimidin-2-yl)piperazine-1-carboxylate], the activation at 30 µM is 52%.

`C[C@@H]1CN(C(=O)OC2CCC2)CCN1c1ncc(OCc2ccc(S(C)(=O)=O)cc2)cn1` [Example 64, (R)-cyclobutyl 3-methyl-4-(5-(4-(methylsulf-onyl)benzyl-oxy)pyrimi-din-2-yl)piperazine-1-carboxylate] came in with an activation at 30 µM of 57%.

Consider `N#Cc1cnccc1COc1cnc(N2CCN(C(=O)OC3CCC3)CC2)nc1` [Example 65, cyclobutyl 4-(5-((3-cyanopyri-din-4-yl)methoxy)pyrimidin-2-yl)piperazine-1-carboxylate], for which the activation at 30 µM was found to be 164%.

For the compound `CC(OC(=O)N1CCN(c2ncc(OCc3ccc(S(C)(=O)=O)cc3)cn2)CC1)C(F)(F)F` (stereo not shown) [Example 66, 1,1,1-Trifluoropropan-2-yl 4-(5-(4-(methylsulfonyl)benzyloxy)pyrimidin-2-yl)piperazine-1-carboxylate], the activation at 30 µM was 56%.

Compound `CC(OC(=O)N1CCN(c2ncc(OCc3ccc(S(C)(=O)=O)cc3)cn2)[C@H](C)C1)C(F)(F)F` (stereo partly drawn) [Example 67, (3R)-1,1,1-trifluoropropan-2-yl 3-methyl-4-(5-(4-(methylsulfonyl)benzyloxy)pyrim-idin-2-yl)piperazine-1-carboxylate] showed an activation at 30 µM of 60%.

`CC(OC(=O)N1CCN(c2ncc(OCc3ccncc3C#N)cn2)CC1)C(F)(F)F` (stereo not shown) [Example 68, 1,1,1-trifluoropropan-2-yl 4-(5-((3-cyanopyridin-4-yl)methoxy)pyrim-idin-2-yl)piperazine-1-carboxylate] showed an activation at 30 µM of 169%.

Regarding `CC(C)(C#N)OC(=O)N1CCN(c2ncc(OCc3ccc(S(C)(=O)=O)cc3)cn2)CC1` [Example 70, 2-Cyanopropan-2-yl 4-(5-(4-(methylsulfonyl)benzyloxy)pyrimidin-2-yl)piperazine-1-carboxylate], the activation at 30 µM was found to be 28%.

As for `C[C@@H]1CN(C(=O)OC(C)(C)C#N)CCN1c1ncc(OCc2ccc(S(C)(=O)=O)cc2)cn1` [Example 71, (R)-2-cyanopropan-2-yl 3-methyl-4-(5-(4-(methylsulfonyl)benzyloxy)pyrimidin-2-yl)piperazine-1-carboxylate], the activation at 30 µM worked out at 73%.

On to `CC(C)(C#N)OC(=O)N1CCN(c2ncc(OCc3ccncc3C#N)cn2)CC1` [Example 72, 2-cyanopropan-2-yl 4-(5-((3-cyanopyridin-4-yl)methoxy)pyrimidin-2-yl)piperazine-1-carboxylate], for which the activation at 30 µM is 173%.

In turn, `CS(=O)(=O)c1ccc(COc2cnc(N3CCN(C(=O)OC4COC4)CC3)nc2)cc1` [Example 75, Oxetan-3-yl 4-(5-(4-(methylsulfonyl)benzyloxy)pyrimidin-2-yl)piperazine-1-carboxylate] displayed an activation at 30 µM of 31%.

Compound `C[C@@H]1CN(C(=O)OC2COC2)CCN1c1ncc(OCc2ccc(S(C)(=O)=O)cc2)cn1` [Example 76, (R)-oxetan-3-yl 3-methyl-4-(5-(4-(methylsulfonyl)benzyloxy)pyrimidin-2-yl)piperazine-1-carboxylate] registered an activation at 30 µM of 30%.

In the case of `N#Cc1cnccc1COc1cnc(N2CCN(C(=O)OC3COC3)CC2)nc1` [Example 77, oxetan-3-yl 4-(5-((3-cyanopyridin-4-yl)methoxy)pyrimidin-2-yl)piperazine-1-carboxylate], the activation at 30 µM amounted to 92%.

Still in this test, the particulars now being: Method A; HEK 293s cells over-expressing human GPR119; midpoint of dose response curve; selected examples.
With `CN(C)CCN(C)C(=O)c1ccc(COc2cnc(N3CCN(C(=O)OC(C)(C)C)CC3)nc2)cc1` [Example 49, tert-butyl 4-(5-(4-((2-(dimethylamino)ethyl)(methyl)carbamoyl)benzyloxy)pyrim-idin-2-yl)piperazine-1-carboxylate], the EC50 was found to be 2040 nM.

`CC1(OC(=O)N2CCN(c3ncc(OCc4ccncc4C#N)cn3)CC2)CC1` [Example 62, 1-methylcyclo-propyl 4-(5-((3-cyanopyridin-4-yl)methoxy)pyrimidin-2-yl)piperazine-1-carboxylate] registered an EC50 of 116 nM.

As for `CC(OC(=O)N1CCN(c2ncc(OCc3ccc(S(C)(=O)=O)cc3)cn2)[C@H](C)C1)C(F)(F)F` (stereo partly drawn) [Example 67, (3R)-1,1,1-trifluoropropan-2-yl 3-methyl-4-(5-(4-(methylsulfonyl)benzyloxy)pyrim-idin-2-yl)piperazine-1-carboxylate], the EC50 amounted to 39 nM. This EC50 lies about 3-fold lower than the previous one.
